Measured values published in EP0747380B1, “Compounds and compositions with nitrogen-containing non-basic side chains” (ELI LILLY AND COMPANY, priority 1995, dated 1996).
Where “and” joins values, the source holds several entries; their conditions need not be identical. Equal entries are not always repeated. Where two headings read alike, the source gives them in different places. Marks after values point to notes of the source that are not given here.

Experiments:
uterus = experiment: Uterine wet weight, post-menopausal (OVX) rat model, four day dosing regimen; type: in vivo, female Sprague Dawley rats; conditions: for Uterine Weight (% inc. OVX): oral, daily for 4 days, OVX rats, * = significantly different than OVX control
Experimental: In the examples illustrating the methods, a post-menopausal model was used in which effects of different treatments upon various biological parameters were determined, including serum cholesterol concentration, uterine weight, eosinophil peroxidase activity, MCF-7 cell proliferation, and bone density.
(§1) Animals were dosed daily for 4 days. […] A blood sample was collected by cardiac puncture.

[1] = tested on: eosinophil peroxidase activity; experiment: Uterine eosinophil peroxidase (EPO) assay, OVX rat, four day dosing regimen; conditions: for Uterine EPO (Vmax): oral, daily for 4 days, OVX rats, * = significantly different than OVX control
Excerpt: (§2) Seventy-five day old female Sprague Dawley rats (weight range of 200 to 225 g) were obtained from Charles River Laboratories (Portage, MI). The animals were either bilaterally ovariectomized (OVX) or exposed to a sham surgical procedure (Intact) at Charles River Laboratories, and then shipped after one week. Upon arrival, they were housed in metal hanging cages in groups of 3 or 4 per cage and had ad libitum access to food (calcium content approximately 0.5%) and water for one week. […] The photoperiod in the room was 12 hours light and 12 hours dark.
(§3) After a one week acclimation period (therefore, two weeks post-OVX), daily dosing with test compound was initiated. 17α-Ethynyl estradiol (EE2) (Sigma Chemical Co., St. Louis, MO), an orally available form of estrogen, or the test compound were given orally, unless otherwise stated, as a suspension in 1% carboxymethyl cellulose or dissolved in 20% cyclodextrin. Animals were dosed daily for 4 days. Following the dosing regimen, animals were weighed and anesthetized with a ketamine:xylazine (2:1, v:v) mixture. A blood sample was collected by cardiac puncture. The animals were then sacrificed by asphyxiation with CO2, the uterus was removed through a midline incision, and a wet uterine weight was determined.
(§4) Uteri were kept at 4° C until time of enzymatic analysis. The uteri were then homogenized in 50 volumes of 50 mM Tris buffer (pH - 8.0) containing 0.005% Triton X-100. Upon addition of 0.01% hydrogen peroxide and 10 mM o-phenylenediamine (final concentrations) in Tris buffer, increase in absorbance was monitored for one minute at 450 nm. […] The maximal velocity of a 15 second interval was determined over the initial, linear portion of the reaction curve.

[2] = tested on: MCF-7 breast adenocarcinoma cells; experiment: MCF-7 proliferation assay (tritiated thymidine incorporation); type: cell-based; conditions: Homo sapiens, MCF7; MCF-7 cells, 48 hours with drug, tritiated thymidine pulse 4 hours; read-out: ED50 (the source's name)
Experimental: MCF-7 breast adenocarcinoma cells (ATCC HTB 22) were maintained in MEM (minimal essential medium, phenol red-free, Sigma, St. Louis, MO) supplemented with 10% fetal bovine serum (FBS) (V/V), L-glutamine (2 mM), sodium pyruvate (1 mM), HEPES {(N-[2-hydroxyethyl]piperazine-N'-[2-ethanesulfonic acid]10 mM}, non-essential amino acids and bovine insulin (1 µg/ml) (maintenance medium). Ten days prior to assay, MCF-7 cells were switched to maintenance medium supplemented with 10% dextrancoated charcoal stripped fetal bovine serum (DCC-FBS) assay medium) in place of 10% FBS to deplete internal stores of steroids. MCF-7 cells were removed from maintenance flasks using cell dissociation medium (Ca++/Mg++ free HBSS (phenol red-free) supplemented with 10 mM HEPES and 2 mM EDTA). Cells were washed twice with assay medium and adjusted to 80,000 cells/ml. […] Serial dilutions of drugs or DMSO as a diluent control were prepared in assay medium and […] to triplicate microcultures followed by 50 ml assay medium for a final volume of […]. After an additional 48 hours at 37° C in a 5% CO2 humidified incubator, microcultures were pulsed with tritiated thymidine (1 uCi/well) for 4 hours. Cultures were terminated by freezing at -70° C for 24 hours followed by thawing and harvesting of microcultures. Samples were counted by liquid scintillation.

serum cholesterol = experiment: Serum cholesterol analysis, OVX rat, four day dosing regimen; type: in vivo, female Sprague Dawley rats; conditions: for inhibition in vivo at 0.1 mg/kg / inhibition in vivo at 1 mg/kg / inhibition in vivo at 10 mg/kg: Rattus norvegicus, 96 h, read-out: Serum Cholesterol (% dec. OVX); for inhibition in vivo at 0.1 mg/kg / inhibition in vivo at 1 mg/kg / inhibition in vivo at 10 mg/kg / Serum Cholesterol (% dec. OVX): oral, daily for 4 days, OVX rats, * = significantly different than OVX control
Experimental: as §1
Blood samples were allowed to clot at room temperature for 2 hours, and serum was obtained following centrifugation for 10 minutes at 3000 rpm. Serum cholesterol was determined using a Boehringer Mannheim Diagnostics high performance cholesterol assay. Briefly the cholesterol was oxidized to cholest-4-en-3-one and hydrogen peroxide. The hydrogen peroxide was then reacted with phenol and 4-aminophenazone in the presence of peroxidase to produce a p-quinone imine dye, which was read spectrophotemetrically at 500 nm. Cholesterol concentration was then calculated against a standard curve. The entire assay was automated using a Biomek Automated Workstation.

tibia density = experiment: Bone density assay, OVX rat, thirty-five day dosing regimen (single photon absorptiometry of tibia); type: in vivo, female Sprague Dawley rats; conditions: OVX rats, oral, daily for 35 days, in 20% hydroxypropyl β-cyclodextrin
Experimental: Following the General Preparation procedure described above, the rats were treated daily for 35 days (6 rats per treatment group) and sacrificed by decapitation on the 36th day. The 35 day time period was sufficient to allow maximal effect on bone density, measured as described herein. At the time of sacrifice, the uteri were removed, dissected free of extraneous tissue, and the fluid contents were expelled before determination of wet weight in order to confirm estrogen deficiency associated with complete ovariectomy. […] The uteri were then placed in 10% neutral buffered formalin to allow for subsequent histological analysis.
The right tibias were excised and scanned at the distal metaphysis 1 mm from the patellar groove with single photon absorptiometry. Results of the densitometer measurements represent a calculation of bone density as a function of the bone mineral content and bone width.
In accordance with the procedures outlined above, compounds of the present invention and EE2 in 20% hydroxypropyl β-cyclodextrin were orally administered to test animals.

[3] = tested on: eosinophil peroxidase activity; conditions: rat, in vivo, po
Excerpt: as §2, §3, §4

| Uterine Weight (% inc. OVX) (uterus; Dose 0.1 mg/kg) [%] | Uterine Weight (% inc. OVX) (uterus; Dose 1 mg/kg) [%] | Uterine Weight (% inc. OVX) (uterus; Dose 10 mg/kg) | Uterine EPO (Vmax) ([1]; Dose 0.1 mg/kg) | Uterine EPO (Vmax) ([1]; Dose 1 mg/kg) | Uterine EPO (Vmax) ([1]; Dose 10 mg/kg) | EC50 [2] [nM] | SMILES | inhibition in vivo at 0.1 mg/kg (serum cholesterol; Dose 0.1 mg/kg) [%] | inhibition in vivo at 1 mg/kg (serum cholesterol; Dose 1 mg/kg) [%] | inhibition in vivo at 10 mg/kg (serum cholesterol; Dose 10 mg/kg) [%] | further results |
| --- | --- | --- | --- | --- | --- | --- | --- | --- | --- | --- | --- |
| -10.0 | 6.5 | 51.7* % | 2.8 | 3.6 | 32 | 10 | O=C(c1ccc(OCC(=O)N2CCCCC2)cc1)c1c(-c2ccc(O)cc2)sc2cc(O)ccc12 [Compound 9] | 4.2 | 22 | 74.3 |  |
| 22.2 | 7.2 | -4.0% | 1.9 | 1.7 | 2.5 | > 1000 | O=C(c1ccc(OCCN2C(=O)CCC2=O)cc1)c1c(-c2ccc(O)cc2)sc2cc(O)ccc12 [Compound 13] | 37.6 | 12.6 | 30.1 |  |
| 13.3 | 17.8 | 57.6* % | 8.0 | 7.8 | 8.9 | 600 | O=C(c1ccc(OCCN2CCCCC2=O)cc1)c1c(-c2ccc(O)cc2)sc2cc(O)ccc12 [Compound 3] | 38.1 | 45.8 | 72.4 |  |
|  |  |  | 120.0* |  |  |  | C#C[C@]1(O)CC[C@H]2[C@@H]3CCc4cc(O)ccc4[C@H]3CC[C@@]21C [ethynyl estradiol, 17α-Ethynyl estradiol, reference compound] | 89.6 |  |  | uterine weight (result in words) (uterus; rat, in vivo, po, 0.1 mg/kg/day): marked stimulatory action on the uterus; eosinophil infiltration into the uterus (result in words) ([1]; ovariectomized rats, measured by assay of eosinophil peroxidase activity): substantial, expected increase in eosinophil infiltration; serum cholesterol (result in words) (serum cholesterol; compared to ovariectomized control animals, four day dosing, EE2 orally at 0.1 mg/Kg/day): caused a decrease in serum cholesterol; tibia density / bone loss (result in words) (tibia density): prevented this loss |
| 1.5 | -6.7 | 38.0* % | 4.3 | 3.1 | 17.0 | 50 | CCCCN(C)C(=O)COc1ccc(C(=O)c2c(-c3ccc(O)cc3)sc3cc(O)ccc23)cc1 [Compound 10] | -40 | 19.1 | 67.1 |  |
| 18.8 | 14.6 |  | 3.3 | 2.4 |  | 0.05 | N#CCOc1ccc(C(=O)c2c(-c3ccc(O)cc3)sc3cc(O)ccc23)cc1 [Compound 14] | 3.3 | 23.7 |  |  |
|  |  |  |  |  |  | 0.01 | CC(C)(C)C(=O)N1CCCCC1COc1ccc(C(=O)c2c(-c3ccc(O)cc3)sc3cc(O)ccc23)cc1 (centres unmarked) [Compound 22] |  |  |  | Uterine EPO (Vmax) ([3]; 0.1 mg/kg): 3.5; Uterine EPO (Vmax) ([3]; 1 mg/kg): 20.0; Uterine EPO (Vmax) ([3]; 10 mg/kg): 69.5* |
| -4.3 | 0.8 | 22.3% | 1.6 | 3.8 | 6.7 | 4 | CC(C)(C)C(=O)N1CCC(Oc2ccc(C(=O)c3c(-c4ccc(O)cc4)sc4cc(O)ccc34)cc2)CC1 [Compound 23] | -17.4 | -5.2 |  |  |
| -17.5 |  |  | 1.3 | 0.7 | 13.6 |  | CC(=O)NCCOc1ccc(C(=O)c2c(-c3ccc(O)cc3)sc3cc(O)ccc23)cc1 [Compound 26] | 15.8 |  |  |  |
|  |  |  | 2.3 | 3.9 | 23.4 | 0.02 | CC(C#N)Oc1ccc(C(=O)c2c(-c3ccc(O)cc3)sc3cc(O)ccc23)cc1 (centres unmarked) [Compound 16] |  |  |  |  |
|  |  |  | 3.6 and 4.4 | 6.1 and 3.7 |  | 10 | O=C(c1ccc(OCC(=O)N2CCCC2)cc1)c1c(-c2ccc(O)cc2)sc2cc(O)ccc12 [Compound 8] |  |  |  | Uterine EPO (Vmax) ([1]; Dose 0.01 mg/kg): 3.5; Serum Cholesterol (% dec. OVX) (serum cholesterol; Dose 0.1 mg/kg): 25.8%; Serum Cholesterol (% dec. OVX) (serum cholesterol; Dose 1 mg/kg): 69.6* % and 39.4* %; Serum Cholesterol (% dec. OVX) (serum cholesterol; Dose 10 mg/kg): 64.5* % |
|  |  |  | 3.2 | 3.6 | 3.6 | 500 | O=C(NCCOc1ccc(C(=O)c2c(-c3ccc(O)cc3)sc3cc(O)ccc23)cc1)c1ccccc1 [Compound 18] |  |  |  |  |
|  |  |  | 3.1 | 2.6 | 2.4 |  | O=C(c1ccc(OCCNC(=O)C2CCCCC2)cc1)c1c(-c2ccc(O)cc2)sc2cc(O)ccc12 [Compound 21] |  |  |  |  |
| -9 | 15.4 | 40.3* % | 3.6 | 1.4 | 3.7 |  | O=C(c1ccc(OCCN2CCCC2=O)cc1)c1c(-c2ccc(O)cc2)sc2cc(O)ccc12 [Compound 6] | 33.6 | 52.4 | 67.5 |  |
| 7 |  |  | 5.4 | 3.7 |  | 0.1 | CC(=O)N(CCOc1ccc(C(=O)c2c(-c3ccc(O)cc3)sc3cc(O)ccc23)cc1)C1CCCCC1 [Compound 19] | 14.5 |  |  |  |
| -7.7 | 15.4 | 60.7* % | 3.7 | 6.7 | 122.3* |  | CN(C)C(=O)COc1ccc(C(=O)c2c(-c3ccc(O)cc3)sc3cc(O)ccc23)cc1 [Compound 12] | 27.8 | 48.2 | 71.2 |  |
| -29.9 | -27.4 | -32.7% | 3.0 | 2.5 | 2.9 | 0.1 | O=C(NCCOc1ccc(C(=O)c2c(-c3ccc(O)cc3)sc3cc(O)ccc23)cc1)NC1CCCCC1 [Compound 20] | -27.2 | -6 | -15.4 |  |

| SMILES | Uterine Weight (% inc. OVX) (uterus; Dose 0.1 mg/kg) [%] | Uterine Weight (% inc. OVX) (uterus; Dose 1 mg/kg) [%] | Uterine Weight (% inc. OVX) (uterus; Dose 10 mg/kg) | Uterine EPO (Vmax) ([1]; Dose 0.1 mg/kg) | Uterine EPO (Vmax) ([1]; Dose 1 mg/kg) | Uterine EPO (Vmax) ([1]; Dose 10 mg/kg) | EC50 [2] [nM] | inhibition in vivo at 0.1 mg/kg (serum cholesterol; Dose 0.1 mg/kg) [%] | inhibition in vivo at 1 mg/kg (serum cholesterol; Dose 1 mg/kg) [%] | inhibition in vivo at 10 mg/kg (serum cholesterol; Dose 10 mg/kg) [%] | further results |
| --- | --- | --- | --- | --- | --- | --- | --- | --- | --- | --- | --- |
| COc1ccc(-c2sc3cc(OC)ccc3c2C(=O)c2ccc(OCC(=O)N3CCCCC3)cc2)cc1 [Compound 7] | -0.5 | -16.2 | 8.4% | 5.2 | 3.7 | 4.7 |  |  |  |  |  |
